Source: publication PMC6369847 (International Journal of Nanomedicine, 2019)
Values after ≈ are worked out from the molar mass of the structure shown. Peptide text beside a SMILES is read from it. * marks the point of attachment. Stearoyl = CCCCCCCCCCCCCCCCCC(=O)*

Key:
[1] = tested on: MDA-MB-231 cells; test: Cytotoxicity test by MTT assay, MDA-MB-231; type: cell-based; details: Homo sapiens, MDA-MB-231, 48 h
[2] = tested on: MDA-MB-231 tumors; test: H&E staining and immunohistochemical analysis; type: in vivo, nude mice; details: tumor sections at 14 days, n=5
[3] = Body weight of mice during the antitumor assay; type: in vivo; details: tumor-bearing nude mice
[4] = In vivo pharmacokinetic studies of PTX; set-up: species or system Sprague Dawley rats
[5] = Encapsulation efficiency and drug loading of micelles; type: physicochemical; details: S-HM-3 concentration ranging from 0.1 to 0.7 mg/mL; data not shown
[6] = In vivo pharmacokinetic studies of S-HM-3; set-up: species or system Sprague Dawley rats; details: rat, background statement of the abstract
[7] = In vivo distribution studies of S-HM-3; set-up: species or system nude mice; details: MDA-MB-231 tumor-bearing mice, vein injection, free S-HM-3
[8] = tested on: HUVECs; test: Transwell cell migration assay; type: cell-based, Human; details: 24 hours, Avstin 10 µg/mL, S-HM-3, TSm, HTSm 9 µg/mL, n=3
[9] = male, Sprague Dawley, rat, plasma, iv, 7 mg/kg

Compound | IC50 [1] [µg/mL] | antiangiogenesis effect (CD31, microvessel density) [2] | toxicity judged from body weight ([3]; regimen of Table 1) | weight loss of mice during the 0–10 days ([3]; regimen of Table 1) | V1 of PTX ([4]; SD rats, i.v. single dose, 7 mg/kg PTX) [L/kg] | CL of PTX ([4]; SD rats, i.v. single dose, 7 mg/kg PTX, 7 mg/kg) [mL/min/kg] | Vd [4, 9] [L/kg] | half-life [4, 9] [h] | encapsulation efficiency of S-HM-3 [5] [%] | half-life [6] [h] | apoptosis in tumor cells (positive p53 rate) [2] | body weight of mice during the test period ([3]; regimen of Table 1, 14 days) | time at which S-HM-3 in organs reached the peak [7] [min] | time at which S-HM-3 was nearly cleared from organs [7] [min] | endothelial cell MI rate (migration inhibition rate) [8] [%]
CC(=O)O[C@H]1C(=O)[C@@]2(C)[C@H]([C@H](OC(=O)c3ccccc3)[C@]3(O)C[C@H](OC(=O)[C@H](O)[C@@H](NC(=O)c4ccccc4)c4ccccc4)C(C)=C1C3(C)C)[C@]1(OC(C)=O)CO[C@@H]1C[C@@H]2O [PTX, Paclitaxel] | 1.37 (≈ 1.6 µM) | almost the same antiangiogenesis effect | high toxicity | obvious | 0.62 ± 0.08 | 21.5 ± 2.83 | 3.34 ± 0.5 | 1.79 ± 0.13 | – | – | – | – | – | – | –
CCCCCCCCCCCCCCCCCC(=O)N[C@H](C(=O)N[C@H](C(=O)N[C@@H](CCCNC(=N)N)C(=O)N[C@@H](CCCNC(=N)N)C(=O)N[C@@H](C)C(=O)N[C@@H](CC(=O)O)C(=O)N[C@@H](CCCNC(=N)N)C(=O)N[C@@H](C)C(=O)N[C@@H](C)C(=O)N[C@H](C(=O)N1CCC[C@H]1C(=O)NCC(=O)NCC(=O)NCC(=O)NCC(=O)N[C@@H](CCCNC(=N)N)C(=O)NCC(=O)N[C@@H](CC(=O)O)C(=O)O)C(C)C)C(C)C)[C@@H](C)CC [S-HM-3] (Stearoyl-IVRRADRAAVPGGGGRGD-OH; N-terminus and C-terminus assumed) | – | almost the same antiangiogenesis effect | very low toxicity or nontoxic | – | – | – | – | – | > 97 | 0.417 | did not induce significant apoptosis | significantly increased | 24 | 60 | 60.55
Avstin: positive control of the cell migration assay, 10 µg/mL | – | – | – | – | – | – | – | – | – | – | – | – | – | – | 69.89
